Source: patent publication US7015313B2, “Lectin protein prepared from Korean marine crab Philyra pisum, process for preparing the same and the use thereof” (priority 2001, dated 2006)

Experiments:
lectin PPA = assay: Hemagglutination-inhibition assay of the lectin PPA with monosaccharide, disaccharide and glycoprotein; assay type: binding, Philyra pisum; conditions: for Erythrocyte agglutination inhibition concentration: 6.25% mouse erythrocyte, lectin PPA diluted 128-fold; for inhibition of agglutination (in words): summary of Table 2
Protocol: In order to confirm that the lectin PPA of the present invention recognizes N-glycolylneuraminic acid, hemagglutination-inhibition reaction was performed using monosaccharide, disaccharide and glycoprotein. 50 Microliters of a 128-fold diluted solution of lectin PPA in 0.15 molar NaCl and 50 microliters of each of 1 milligram per milliliter solutions of monosaccharides (e.g., β-D-glucose, D-galactose, L-fucose, D-mannose, N-acetylneuraminic acid, N-glycolylneuraminic acid, N-acetyl-D-glucosamine, N-acetyl-D-galactosamine and methyl-α-D-glucopoyranoside), disaccharide (e.g., α-lactose, β-lactose, D-lactose, βgentiobiose, maltose, D-raffinose or D-cellobiose) and glycoprotein (e.g., bovine submaxillary mucin, thyroglobulin, fetuin and asialofetuin) in 0. 15 molar NaCl were added to the each well of a 96-well microplate. After the reaction for one hour or more at room temperature, 50 microliters of the erythrocyte suspended in 0.15 molar NaCl was added to each well and reacted for one hour at room temperature.
The negative sign (−) means that there is no hemagglutination-inhibition for 100 millimolar monosaccharide/disaccharide and 100 micromolar glucoprotein. NeuGc and NeuAc represent N-glycolylneuraminic acid and N-acetylneuraminic acid, respectively.

[1] = tested on: peroxidase-labeled lectin PPA; assay: ELISA with peroxidase-labeled lectin PPA on coated glycoproteins; assay type: binding, Philyra pisum; conditions: 1 milligram per milliliter glycoprotein solution diluted 10^3 to 10^8-fold, FIG. 3
Protocol: In order to more accurately verify the hemagglutination-inhibition reaction of the lectin PPA, ELISA was conducted. Specifically, the lectin PPA bound to a horse radish peroxidase (HRP) was used in examining the reactivity and sensitivity against glucoproteins by ELISA. First, 5.03 milligrams of HRP were dissolved in 0.2 milliliter of a 1.25% glutaraldehyde (EM grade)-100 millimolar sodium phosphate buffer (pH 6.8) and allowed to stand for 18 hours at room temperature. Then, 20 microliters of glycerol and 20 microliters of xylene cyanol were added thereto and this was used in performing gel filtration with a SEPHADEX (TM) G-75 column equilibrated with a 100 millimolar phosphate buffer and 0.15 molar NaCl (pH 7.2). After applying the glutaraldehyde-treated HRP onto the column and eluting with 0.15 molar NaCl, about 1 milliliter of the brownish fraction containing HRP solution was collected. This fraction was dialyzed with a 100 millimolar sodium carbonate-sodium bicarbonate buffer solution (pH 9.5) containing sucrose and followed by the same buffer without sucrose. To 300 microliters of HRP thus obtained were added 150 microliters of lectin PPA (concentration of about 0.4 milligram per milliliter concentration) containing with 0.15 molar NaCl. After confirming the pH value 9.0 or more, the resultant solution was incubated for 24 hours at 4° C. to prepare peroxidase-labeled lectin PPA. In the mean time, 1 milligram of each of fetuin, asialofetuin and bovine submaxillary mucin was dissolved in 1 milliliter of PBS and serial 10-fold dilutions were made. […] Then, the absorbance at 415 nanometers of each well was measured with a microplate reader. To eliminate the error of each well caused by the time difference while adding ABTS, a second measurement was performed after 10 minutes to determine the difference in the absorbances between the time of 10 minutes and 0 minute. […] The absorbance was decreased with the lowering of the concentration.

[2] = monosaccharide/disaccharide tested from 100 mM
[3] = glycoprotein, minimum concentration
[4] = glycoprotein tested from 100 micromolar

Compound	Erythrocyte agglutination inhibition concentration (lectin PPA; [2])	further results
O=C(CO)N[C@H]1[C@H]([C@H](O)[C@H](O)CO)OC(O)(C(=O)O)C[C@@H]1O (some centres unmarked) [N-glycolylneuraminic acid]	–	Erythrocyte agglutination inhibition concentration (lectin PPA; monosaccharide/disaccharide, minimum concentration): 190 µM; inhibition of agglutination (in words) (lectin PPA): inhibited the agglutination
CC(=O)N[C@H]1C(O)O[C@H](CO)[C@@H](O)[C@@H]1O (stereo partly drawn) [N-acetyl-D-glucosamine]	— (The negative sign (−) means that there is no hemagglutination-inhibition for 100 millimolar monosaccharide/disaccharide)	–
OC[C@H]1O[C@H](OC[C@H]2O[C@H](O[C@]3(CO)O[C@H](CO)[C@@H](O)[C@@H]3O)[C@H](O)[C@@H](O)[C@@H]2O)[C@H](O)[C@@H](O)[C@H]1O [D-raffinose]	— (The negative sign (−) means that there is no hemagglutination-inhibition for 100 millimolar monosaccharide/disaccharide)	–
O=C[C@H](O)[C@@H](O)[C@@H](O)[C@H](O)CO [D-galactose]	— (The negative sign (−) means that there is no hemagglutination-inhibition for 100 millimolar monosaccharide/disaccharide)	–
OC[C@H]1O[C@@H](OC[C@H]2O[C@@H](O)[C@H](O)[C@@H](O)[C@@H]2O)[C@H](O)[C@@H](O)[C@@H]1O [β-gentiobiose]	— (The negative sign (−) means that there is no hemagglutination-inhibition for 100 millimolar monosaccharide/disaccharide)	–
OC[C@H]1O[C@@H](O[C@H]2[C@H](O)[C@@H](O)[C@@H](O)O[C@@H]2CO)[C@H](O)[C@@H](O)[C@H]1O [α-lactose]	— (The negative sign (−) means that there is no hemagglutination-inhibition for 100 millimolar monosaccharide/disaccharide)	–
CC(=O)N[C@H]1C(O)O[C@H](CO)[C@H](O)[C@@H]1O (stereo partly drawn) [N-acetyl-D-galactosamine]	— (The negative sign (−) means that there is no hemagglutination-inhibition for 100 millimolar monosaccharide/disaccharide)	–
OC[C@H]1O[C@@H](O[C@H]2[C@H](O)[C@@H](O)[C@H](O)O[C@@H]2CO)[C@H](O)[C@@H](O)[C@@H]1O [D-cellobiose]	— (The negative sign (−) means that there is no hemagglutination-inhibition for 100 millimolar monosaccharide/disaccharide)	–
OC[C@H]1O[C@H](O[C@H]2[C@H](O)[C@@H](O)[C@H](O)O[C@@H]2CO)[C@H](O)[C@@H](O)[C@@H]1O [Maltose]	— (The negative sign (−) means that there is no hemagglutination-inhibition for 100 millimolar monosaccharide/disaccharide)	–
Thyroglobulin: glycoprotein containing N-glycolylneuraminic acid	–	Erythrocyte agglutination inhibition concentration (lectin PPA; [3]): 0.4 µM; inhibition of agglutination (in words) (lectin PPA): inhibited the agglutination
Asialofetuin: glycoprotein without sialic acid, does not contain N-glycolylneuraminic acid	–	ELISA response (absorbance at 415 nanometers) [1]: no response occurred; Erythrocyte agglutination inhibition concentration (lectin PPA; [4]): — (The negative sign (−) means that there is no hemagglutination-inhibition for 100 millimolar monosaccharide/disaccharide and 100 micromolar glucoprotein)
Bovine submaxillary mucin	–	ELISA response (absorbance at 415 nanometers) [1]: a response in which absorbance value is increased was observed; Erythrocyte agglutination inhibition concentration (lectin PPA; [3]): 1.3 µM; inhibition of agglutination (in words) (lectin PPA): inhibited the agglutination
Fetuin: glycoprotein with NeuAc, does not contain N-glycolylneuraminic acid	–	ELISA response (absorbance at 415 nanometers) [1]: no response occurred; Erythrocyte agglutination inhibition concentration (lectin PPA; [4]): — (The negative sign (−) means that there is no hemagglutination-inhibition for 100 millimolar monosaccharide/disaccharide and 100 micromolar glucoprotein)
CC(=O)N[C@H]1[C@H]([C@H](O)[C@H](O)CO)OC(O)(C(=O)O)C[C@@H]1O (some centres unmarked) [N-acetylneuraminic acid]	— (The negative sign (−) means that there is no hemagglutination-inhibition for 100 millimolar monosaccharide/disaccharide)	–
O=C[C@@H](O)[C@@H](O)[C@H](O)[C@H](O)CO [D-mannose]	— (The negative sign (−) means that there is no hemagglutination-inhibition for 100 millimolar monosaccharide/disaccharide)	–
OC[C@H]1O[C@@H](O[C@H]2[C@H](O)[C@@H](O)[C@H](O)O[C@@H]2CO)[C@H](O)[C@@H](O)[C@H]1O [β-lactose]	— (The negative sign (−) means that there is no hemagglutination-inhibition for 100 millimolar monosaccharide/disaccharide)	–
C[C@H](O)[C@@H](O)[C@@H](O)[C@H](O)C=O [L-fucose]	— (The negative sign (−) means that there is no hemagglutination-inhibition for 100 millimolar monosaccharide/disaccharide)	–
OC[C@H]1O[C@@H](O)[C@H](O)[C@@H](O)[C@@H]1O [beta.-D-glucose]	— (The negative sign (−) means that there is no hemagglutination-inhibition for 100 millimolar monosaccharide/disaccharide)	–
CO[C@H]1O[C@H](CO)[C@@H](O)[C@H](O)[C@H]1O [Methyl-α-D-glucopyranoside]	— (The negative sign (−) means that there is no hemagglutination-inhibition for 100 millimolar monosaccharide/disaccharide)	–
OC[C@H]1O[C@@H](O[C@H]2[C@H](O)[C@@H](O)C(O)O[C@@H]2CO)[C@H](O)[C@@H](O)[C@H]1O (stereo partly drawn) [D-lactose]	— (The negative sign (−) means that there is no hemagglutination-inhibition for 100 millimolar monosaccharide/disaccharide)	–
